In patent US8148387B2, “AKT and P70 S6 kinase inhibitors” (Eli Lilly and Company, priority 2008, dated 2012):
Read-outs that look alike come from different tables or passages of the source.

Columns and labels:
[1] = target: T1, p70 S6 Kinase (Homo sapiens, UniProt P23443, T412E); assay: p70 S6 Kinase In Vitro Enzyme Assay (Transcreener Kinase ADP-FP); format: biochemical; conditions: 25 micromolar ATP; read-out: IC50 against p70 S6 Kinase
T1 construct: amino acids 1-421, T412E; His tag (N)
Description: Compound IC50 values against p70 S6 Kinase target are determined using the p70 S6 Transcreener™ Kinase ADP-FP Assay. This assay assesses the activity of p70 S6 kinase in the presence of compound inhibitors by measuring the concentration of adenosine diphosphate (ADP) formed in a kinase reaction. The kinase reactions (25 μL reaction volumes) are performed in 96-well half-area black polystyrene plates. Adenosine triphosphate (ATP) is added to start the reactions. Final reaction conditions are 10 millimolar N-2-hydroxyethyl-piperazine-N′-2-ethanesulfonic acid (HEPES) pH 7.5, 0.005% TRITON™ X-100, 0.082 millimolar ethyleneglycol tetraacetic acid (EGTA), 1 millimolar dithiothreitol, 10 millimolar magnesium chloride, 4 micromolar substrate peptide, 25 micromolar ATP, active p70 S6 Kinase (Human recombinant, amino acids 1-421, T412E, N-terminal histidine-tagged), 4% DMSO and serial dilutions of compound (diluted 1:3 from 20,000 to 1 nanomolar). […] Quenched reactions are incubated for 4-16 hours, and then read in a Tecan Ultra Evolution plate reader in Fluorescence Polarization mode using polarizing filters of Ex612nm and Em633nm wavelength. […] The IC50 value for each compound is derived using percent inhibition data which is calculated using the micromolar ADP reaction data relative to on-plate controls (active enzyme versus 100 millimolar inhibited enzyme controls). […]

[2] = system: phosphorylation of the serine 240/244 site of S6RP; assay: p70 S6K/AKT In Vivo Target Inhibition, U87MG xenograft, pS6; design: species or system athymic nude mice; conditions: Mus musculus, U-87 MG, IV Dose 12.5 mpk, U87MG tumors, read-out: p(S240) S6 - % inhibition
Description: (§1) U87MG human glioblastoma cells (5×106) are subcutaneously implanted into the flank of athymic nude mice in 0.2 mL of matrigel. Two weeks post-implantation, mice are dosed orally or parenterally according to a time course, single dose/single time point, or dose response protocol for the determination of TMED50 (threshold minimum effective dose). Tumors are flash frozen at harvest and blood is collected for the determination of parent compound plasma exposure and the calculation of TMEC50 (threshold minimum effective concentration) in the case of dose response studies. Tumors or tissues are pulverized in liquid N2 and lysed in 400 μL of XY Lysis Buffer (10 μg/mL Leupeptin, 10 μg/mL Trypsin-Chymotrypsin Inhibitor, 10 μg/mL Tosyl phenyl-alanyl chloromethyl ketone, 10 μg/mL Aprotinin, 60 mM Beta-Glycerol Phosphate, 1% Triton X100, 25 mM Tris pH 7.5, 2.5 mM Pyrophosphate, 150 mM NaCl, 2 mM p-tosyl-L-arginine methyl ester, 15 mM para-nitrophenyl phosphate, 5 mM Benzamidine, 1 mM Na Vanadate, 10 mM NaF, 50 μg/mL phenyl-methane sulfonyl fluoride, 1 mM 1,4-Dithiothreitol (DTT), 15 mM EDTA pH 8.0, 5 mM EGTA pH 8.0, 1 μM Microcystin, 1 μM Okadaic Acid, and 1 Roche Complete protease inhibitor mini-tablet per 10 mL) using Lysing Matrix D tubes (MP Biomedicals, Solon, Ohio, cat#6913-500) and a BIO101 Thermo Savant Fast Prep FP12. Lysates are aliquoted and either assayed immediately or stored at −80° C. for later testing. In Vivo Target Inhibition of p70 S6K and AKT is measured utilizing Meso Scale Discovery (Gaithersburg, Md.) ELISA technology to assess effects on phosphorylation of the serine 240/244 site of the downstream effector S6RP. Phosphorylation of p70 S6K(T389), AKT(5473) and GSK3β(S9) is also assessed using this technology in a multiplex format. In summary, 20 μg of lysate is added to carbon electrode containing 96-well plates pre-spotted with the appropriate capture antibodies. The protein of interest is probed using a ruthenium labeled detection antibody. Upon the passage of current over the electrode in the presence of read buffer containing the co-reactant TPA, electro-chemiluminescence results in the generation of light which is quantified and recorded using the MSD Sector 6000 instrument. For each study, percent inhibitions are calculated relative to the vehicle control group and ANOVA analysis is performed using the JMP software package for the determination of statistical significance.

[3] = system: pAKT S473; assay: p70 S6K/AKT In Vivo Target Inhibition, U87MG xenograft, pAKT; design: species or system athymic nude mice; conditions: Mus musculus, U-87 MG, IV Dose 12.5 mpk, U87MG tumors
Description: as §1

T1 sequence (P23443 1-421 T412E): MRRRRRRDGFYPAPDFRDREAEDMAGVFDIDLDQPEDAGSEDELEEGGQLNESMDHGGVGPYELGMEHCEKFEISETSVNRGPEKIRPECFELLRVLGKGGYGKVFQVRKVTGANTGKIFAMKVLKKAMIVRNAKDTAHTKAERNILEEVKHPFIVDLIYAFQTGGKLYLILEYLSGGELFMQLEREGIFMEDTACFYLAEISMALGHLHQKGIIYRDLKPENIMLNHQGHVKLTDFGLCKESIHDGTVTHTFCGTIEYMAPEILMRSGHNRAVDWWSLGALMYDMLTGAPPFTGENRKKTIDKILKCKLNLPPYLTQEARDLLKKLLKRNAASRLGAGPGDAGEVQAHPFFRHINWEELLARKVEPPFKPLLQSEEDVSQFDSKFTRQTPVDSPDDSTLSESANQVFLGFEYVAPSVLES

`CN(C)CCn1cc(-c2ccc(F)c(C(F)(F)F)c2)nc1C1CCN(c2ncnc3c2C(C)(C)C(=O)N3)CC1` [Example 31] showed an IC50 [1] of 7 nM, an inhibition at 12.5 mg/kg ([2]; 1 hr post IV dose) of 79.2% and an inhibition at 12.5 mg/kg ([2]; 2 hr post IV dose) of 87.6%. The inhibition at 12.5 mg/kg ([2]; 4 hr post IV dose) was 94.9%, the inhibition at 12.5 mg/kg ([2]; 6 hr post IV dose) was 91.7% and the inhibition at 12.5 mg/kg ([2]; 8 hr post IV dose) was 96.4%. The inhibition at 12.5 mg/kg ([2]; 24 hr post IV dose) was 45%, the inhibition at 12.5 mg/kg ([3]; 1 hr post IV dose) was 4% and the inhibition at 12.5 mg/kg ([3]; 2 hr post IV dose) was -22.3%. The inhibition at 12.5 mg/kg ([3]; 4 hr post IV dose) was -19.2%, the inhibition at 12.5 mg/kg ([3]; 6 hr post IV dose) was -26.3% and the inhibition at 12.5 mg/kg ([3]; 8 hr post IV dose) was -9.4%. It also gave an inhibition at 12.5 mg/kg ([3]; 24 hr post IV dose) of 22.6%.
